Assay results published in PubChem BioAssay (NCI).
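Each compound was tested at five concentrations against cells in 96-well plates for 48 hours. At the GI50, growth is halved. Definition used: TGI = concentration required for complete inhibition of growth.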

Experiments:
Assay in all cases: growth of human tumour cells (NCI), 48 h
KM12 colon = test system: KM12 colon
SK-MEL-2 melanoma = test system: SK-MEL-2 melanoma
SF-295 CNS = test system: SF-295 CNS
MDA-MB-231 breast = test system: MDA-MB-231 breast
SK-MEL-5 melanoma = test system: SK-MEL-5 melanoma
NCI-H522 lung = test system: NCI-H522 lung
HOP-62 NSCLC = test system: HOP-62 NSCLC
MALME-3M melanoma = test system: MALME-3M melanoma
HL-60(TB) leukemia = test system: HL-60(TB) leukemia
SK-OV-3 ovarian = test system: SK-OV-3 ovarian

| Structure (SMILES) | GI50 (KM12 colon) | TGI (KM12 colon) | GI50 (SK-MEL-2 melanoma) | TGI (SK-MEL-2 melanoma) | GI50 (SF-295 CNS) | TGI (SF-295 CNS) | GI50 (MDA-MB-231 breast) | TGI (MDA-MB-231 breast) | GI50 (SK-MEL-5 melanoma) | TGI (SK-MEL-5 melanoma) | GI50 (NCI-H522 lung) | TGI (NCI-H522 lung) | GI50 (HOP-62 NSCLC) | TGI (HOP-62 NSCLC) | GI50 (MALME-3M melanoma) | TGI (MALME-3M melanoma) | GI50 (HL-60(TB) leukemia) | TGI (HL-60(TB) leukemia) | GI50 (SK-OV-3 ovarian) | TGI (SK-OV-3 ovarian) |
| --- | --- | --- | --- | --- | --- | --- | --- | --- | --- | --- | --- | --- | --- | --- | --- | --- | --- | --- | --- | --- |
| C#Cc1cccc(NC(=O)Nc2ccccc2NC(=O)CCl)c1 | 14.2 µM | 26.5 µM | 22 µM | 63.9 µM | 39.4 µM | > 82.5 µM | 16.6 µM | 34.6 µM | 14.2 µM | 26.9 µM | 20.8 µM | 71.5 µM | 25.9 µM | > 82.5 µM | 19.5 µM | 56.7 µM | 25.2 µM | > 82.5 µM | > 82.5 µM | > 82.5 µM |
| O=C(Nc1ccc(Cl)c(Cl)c1)Nc1ccc(Cl)c([N+](=O)[O-])c1 | 1.07 µM | 4.38 µM | 1.14 µM | 5.5 µM | 0.688 µM | 2.54 µM | 2.93 µM | 7.09 µM | 2 µM | 5.08 µM | 0.996 µM | 4.9 µM | 2.06 µM | 6.04 µM | 0.915 µM | 4.96 µM | 0.947 µM | 14.6 µM | 2.01 µM | 5.89 µM |
| COc1ccc(C(=O)c2cc3c(N)c(C(=O)Nc4cccc(Cl)c4)sc3nc2C)cc1 | 1.25 µM | > 33.3 µM | 11.2 µM | > 33.3 µM | 1.08 µM | > 33.3 µM | 2.55 µM | > 33.3 µM | 0.92 µM | 2.6 µM | 1.1 µM | > 33.3 µM | 2.24 µM | > 33.3 µM | 1.28 µM | > 33.3 µM | 1.09 µM | > 33.3 µM | 1.58 µM | > 33.3 µM |
| COc1ccc(C(=O)CC2(O)C(=O)Nc3c(Cl)ccc(Cl)c32)cc1 (stereo unspecified) | 0.732 µM | > 59.2 µM | 2.21 µM | > 44.1 µM | 1.35 µM | 14.8 µM | 4.27 µM | > 92.4 µM | 1.01 µM | 18.8 µM | 0.406 µM | 3.58 µM | 3.42 µM | > 100 µM | 8.96 µM | > 100 µM | 0.384 µM | 3.51 µM | 2.89 µM | > 100 µM |
| O=c1ccc2nc(-c3ccccc3)nn(-c3ccccc3)c-2c1 | 16.4 µM | 37.5 µM | 2.28 µM | 4.45 µM | 13 µM | 32.1 µM | 1.88 µM | 3.84 µM | 3.71 µM | 16.3 µM | 0.462 µM | 0.918 µM | 5.34 µM | 26.1 µM | 0.479 µM | 1.67 µM | 0.362 µM | 1.24 µM | 13.3 µM | 26.6 µM |
| CCN1CCC(C(=O)Nc2n[nH]c3nnc(-c4cccc(F)c4F)cc23)CC1 | 6.1 µM | > 18.2 µM | 4.84 µM | 14.2 µM | 5.73 µM | > 25 µM | 5.51 µM | 20.3 µM | 1.62 µM | 7.46 µM | 6.68 µM | > 17 µM | 7.62 µM | > 19.3 µM | > 22.6 µM | > 25 µM | 8.16 µM | 19.5 µM | 2.33 µM | 23.4 µM |
| CC(C)(O)Cn1c(=O)c(Oc2ccc(F)cc2F)cc2cnc(NC3CCOCC3)nc21 | > 25 µM | > 25 µM | > 25 µM | > 25 µM | > 25 µM | > 25 µM | > 25 µM | > 25 µM | > 25 µM | > 25 µM | > 25 µM | > 25 µM | > 25 µM | > 25 µM | > 25 µM | > 25 µM | > 25 µM | > 25 µM | > 25 µM | > 25 µM |
| O=C1CCCC1C(=O)Nc1ccc2ccccc2c1 (stereo unspecified) |  | > 100 µM |  | > 100 µM |  | > 100 µM |  | > 100 µM |  | > 100 µM |  | > 100 µM |  | > 100 µM |  | > 100 µM |  | > 100 µM |  | > 100 µM |
| N#Cc1c(N)nn(C(=O)c2ccc(NC(=O)c3ccccn3)cc2)c1-c1ccc(Cl)cc1 |  |  | 71.6 µM | > 100 µM | 3.06 µM | 15.7 µM | 11.6 µM | > 100 µM | 7.15 µM | > 100 µM | 4.52 µM | > 100 µM | 2.53 µM | 8.37 µM | 2.35 µM | 6.45 µM | > 100 µM | > 100 µM | 5.23 µM | 34.9 µM |
| Cc1cc2c(-c3nc4ccccc4[nH]3)c(O)c(O)cc2c(O)c1-c1c(C)cc2c(-c3nc4ccccc4[nH]3)c(O)c(O)cc2c1O | 0.017 µM | 0.775 µM | 0.0993 µM | 10.6 µM | 0.0227 µM | 1.58 µM | 0.0835 µM | > 38.9 µM |  |  | 0.0449 µM | 0.878 µM | 0.0717 µM | 0.864 µM | 0.0321 µM | 2.26 µM | 0.0328 µM | > 50 µM | 0.045 µM | 0.283 µM |
